The source of these data is patent US20230303549A1, “SUBSTITUTED HETEROARYLOXYPYRIDINES, THE SALTS THEREOF AND THEIR USE AS HERBICIDAL AGENTS” (Bayer Aktiengesellschaft, priority 2020, published 2023).

Assay type in all cases: in vivo
In assay [1] the test system is Matricaria inodora (MATIN). Put plainly: Pre-emergence herbicide efficacy at 320 g/ha, greenhouse pot test. Conditions: visual scoring vs untreated control after about 3 weeks. From the text: (§1) Seeds of mono- and dicotyledonous weed plants were placed in plastic pots in sandy loam soil (doubly sown with in each case one species of mono- or dicotyledonous weed plants per pot) and covered with soil. The compounds of the invention, formulated in the form of wettable powders (WP) or as emulsion concentrates (EC), were then applied onto the surface of the covering soil as aqueous suspension or emulsion with addition of 0.5% additive at a water application rate of 600 liters per hectare (converted). After the treatment, the pots were placed in a greenhouse and kept under good growth conditions for the test plants. After about 3 weeks, the effect of the preparations was scored visually in comparison with untreated controls as percentages. For example, 100% activity=the plants have died, 0% activity=like control plants. Tables C1 to C12 below show the effects of selected compounds of the general formula (I) according to Table 1 on various harmful plants and an application rate corresponding to 320 g/ha, which were obtained by the experimental procedure mentioned above.

The test system of assay [2] is Stellaria media (STEME). Described as above. As to conditions: visual scoring vs untreated control after about 3 weeks.
Description: as §1

For assay [3], the system named is Amaranthus retroflexus (AMARE). The description is as above. As to conditions: visual scoring vs untreated control after about 3 weeks.
Description: as §1

The test system of assay [4] is Bassia scoparia (KCHSC). Described as above.
Description: as §1

The subject of assay [5] is Setaria viridis (SETVI). Described as above. As to conditions: visual scoring vs untreated control after about 3 weeks.
Description: as §1

Assay [6] deals with Veronica persica (VERPE). The assay is described as above. Conditions: visual scoring vs untreated control after about 3 weeks.
Description: as §1

Assay [7] deals with Echinochloa crus-galli (ECHCG). The assay is described as above. As to conditions: visual scoring vs untreated control after about 3 weeks.
Description: as §1

The test system of assay [8] is Alopecurus myosuroides (ALOMY). Described as above. Conditions: visual scoring vs untreated control after about 3 weeks.
Description: as §1

Assay [9] concerns Abutilon theophrasti (ABUTH). The description is as above. As to conditions: visual scoring vs untreated control after about 3 weeks.
Description: as §1

For assay [10], the system named is Poa annua (POAAN). Described as above. As to conditions: visual scoring vs untreated control after about 3 weeks.
Description: as §1

Assay [11] concerns Bassia scoparia (KCHSC). As to the kind of experiment: Post-emergence herbicidal efficacy at 320 g/ha, greenhouse pot test. Conditions: visual rating vs untreated control after about 3 weeks. How it is done:
(§2) Seeds of mono- and dicotyledonous weed plants were placed in plastic pots in sandy loam soil (doubly sown with in each case one species of mono- or dicotyledonous weed plants per pot), covered with soil and cultivated in a greenhouse under controlled growth conditions. 2 to 3 weeks after sowing, the test plants were treated at the one-leaf stage. The compounds of the invention, formulated in the form of wettable powders (WP) or as emulsion concentrates (EC), were applied onto the green parts of the plants as aqueous suspension or emulsion with addition of 0.5% additive at a water application rate of 600 liters per hectare (converted). After the test plants had been kept in the greenhouse under optimum growth conditions for about 3 weeks, the activity of the preparations was rated visually in comparison to untreated controls. For example, 100% activity=the plants have died, 0% activity=like control plants. Tables […] 11 below show the effects of selected compounds of the general formula (I) according to Table 1 on various harmful plants and an application rate corresponding to 320 g/ha, which were obtained by the experimental procedure mentioned above.

The test system of assay [12] is Abutilon theophrasti (ABUTH). The assay is described as above. As to conditions: visual rating vs untreated control after about 3 weeks. As to the method:
as §2

The test system of assay [13] is Poa annua (POAAN). Described as above. Conditions: visual rating vs untreated control after about 3 weeks. As to the method: as §2
Assay [14] concerns Stellaria media (STEME). Described as above. As to conditions: visual rating vs untreated control after about 3 weeks. How it is done: as §2
Assay [15] deals with Veronica persica (VERPE). The assay is described as above. Conditions: 320 g/ha, visual rating vs untreated control after about 3 weeks. How it is done: as §2
In assay [16] the test system is Amaranthus retroflexus (AMARE). The assay is described as above. As to conditions: visual rating vs untreated control after about 3 weeks. As to the method:
as §2

Setting [17] is: dosage 1280 g/ha in Table C6, visual scoring after about 3 weeks.

Consider `Cc1cc(C)c(-c2cc(C(F)(F)F)on2)c(Oc2ncc(F)cn2)n1` [Example I-6], for which the “Pre-emergence efficacy against Matricaria inodora (MATIN)” value (“Pre-emergence efficacy … (MATIN)” below) in assay [1] amounted to 100%. For the same compound, the “Pre-emergence efficacy against Stellaria media (STEME)” value (“Pre-emergence efficacy … (STEME)” below) in assay [2] stood at 100%. In addition, in [3], the “Pre-emergence efficacy against Amaranthus retroflexus (AMARE)” value (shortened to “Pre-emergence efficacy … (AMARE)”) worked out at 100%. Moreover, the “Pre-emergence efficacy against Bassia scoparia (KCHSC)” value (from here on “Pre-emergence efficacy … (KCHSC)”) in assay [4] (320 g/ha, visual scoring vs untreated control after about 3 weeks) was 90%. In addition, in [5], the “Pre-emergence efficacy against Setaria viridis (SETVI)” value (shortened to “Pre-emergence efficacy … (SETVI)”) came out at 100%. The “Pre-emergence efficacy against Veronica persica (VERPE)” value (“Pre-emergence efficacy … (VERPE)” below) in [6] is reported as 100%. The “Pre-emergence efficacy against Echinochloa crus-galli (ECHCG)” value (from here on “Pre-emergence efficacy … (ECHCG)”) in assay [7] is 100%. In addition, in assay [8], the “Pre-emergence efficacy against Alopecurus myosuroides (ALOMY)” value stood at 90%. In addition, the “Pre-emergence efficacy against Abutilon theophrasti (ABUTH)” value (shortened to “Pre-emergence efficacy … (ABUTH)”) in assay [9] is on record as 100%. Further, the “Pre-emergence efficacy against Poa annua (POAAN)” value (“Pre-emergence efficacy … (POAAN)” below) in assay [10] amounted to 100%. Besides, the “Post-emergence efficacy against Bassia scoparia (KCHSC)” value (“Post-emergence efficacy … (KCHSC)” for short) in [11] is on record as 90%. Further, the “Post-emergence efficacy against Abutilon theophrasti (ABUTH)” value (shortened to “Post-emergence efficacy … (ABUTH)”) in assay [12] was 90%. Further, the “Post-emergence efficacy against Poa annua (POAAN)” value (“Post-emergence efficacy … (POAAN)” for short) in assay [13] is recorded as 90%.
For `Cc1cc(C)c(-c2cc(C3(C)CC3)no2)c(Oc2ncc(F)cn2)n1` [Example I-299], the “Pre-emergence efficacy … (STEME)” value in [2] is 100%. Further, the “Pre-emergence efficacy … (AMARE)” value in assay [3] stood at 100%. Also, in assay [5], the “Pre-emergence efficacy … (SETVI)” value came out at 90%. Further, the “Pre-emergence efficacy … (ECHCG)” value in assay [7] was found to be 90%. In addition, in assay [9], the “Pre-emergence efficacy … (ABUTH)” value is 90%. In assay [10], the “Pre-emergence efficacy … (POAAN)” value was 90%. Moreover, the “Post-emergence action against Stellaria media (STEME)” value (from here on “Post-emergence action”) in assay [14] was 90%. Moreover, the “Post-emergence efficacy against Veronica persica (VERPE)” value (“Post-emergence efficacy … (VERPE)” below) in [15] turned out to be 90%. Besides, in assay [12], the “Post-emergence efficacy … (ABUTH)” value stood at 90%.
As to `Cc1cc(C)c(-c2cc(C3CC3)no2)c(Oc2ncc(Cl)cn2)n1` [Example I-179], the “Pre-emergence efficacy … (MATIN)” value in [1] was 100%. For the same compound, the “Pre-emergence efficacy … (STEME)” value in assay [2] is recorded as 100%. Further, the “Pre-emergence efficacy … (AMARE)” value in [3] came to 100%. The “Pre-emergence efficacy … (KCHSC)” value in assay [4] (setting [17]) turned out to be 90%. Also, the “Pre-emergence efficacy … (SETVI)” value in [5] amounted to 100%. Besides, the “Pre-emergence efficacy … (VERPE)” value in assay [6] worked out at 90%. Further, the “Pre-emergence efficacy … (ECHCG)” value in assay [7] was 100%. Further, the “Pre-emergence efficacy … (ABUTH)” value in assay [9] worked out at 100%. Further, the “Pre-emergence efficacy … (POAAN)” value in assay [10] worked out at 100%. Besides, the “Post-emergence action” value in assay [14] is recorded as 100%. In addition, the “Post-emergence efficacy against Amaranthus retroflexus (AMARE)” value (shortened to “Post-emergence efficacy … (AMARE)”) in assay [16] was determined as 90%. For the same compound, in [11], the “Post-emergence efficacy … (KCHSC)” value is listed as 90%. For the same compound, the “Post-emergence efficacy … (VERPE)” value in assay [15] was determined as 100%. In addition, in assay [12], the “Post-emergence efficacy … (ABUTH)” value came to 90%. In addition, the “Post-emergence efficacy … (POAAN)” value in assay [13] worked out at 90%.
`Cc1cc(C)c(-c2cc(C3CC3)no2)c(Oc2ncc(F)cn2)n1` [Example I-178]: the “Pre-emergence efficacy … (MATIN)” value in assay [1] is on record as 100%. Further, the “Pre-emergence efficacy … (STEME)” value in assay [2] is given as 100%. Further, the “Pre-emergence efficacy … (AMARE)” value in assay [3] came to 100%. For the same compound, the “Pre-emergence efficacy … (KCHSC)” value in assay [4] (setting [17]) is listed as 90%. For the same compound, the “Pre-emergence efficacy … (SETVI)” value in assay [5] worked out at 100%. Moreover, the “Pre-emergence efficacy … (VERPE)” value in assay [6] came out at 100%. In addition, in [7], the “Pre-emergence efficacy … (ECHCG)” value is recorded as 100%. Also, the “Pre-emergence efficacy … (ABUTH)” value in [9] is 100%. The “Pre-emergence efficacy … (POAAN)” value in assay [10] stood at 100%. In assay [14], the “Post-emergence action” value turned out to be 100%. In [16], the “Post-emergence efficacy … (AMARE)” value was 100%. Besides, the “Post-emergence efficacy … (KCHSC)” value in assay [11] stood at 90%. In addition, the “Post-emergence efficacy … (VERPE)” value in assay [15] came to 100%. Also, the “Post-emergence efficacy … (ABUTH)” value in assay [12] is given as 90%. In addition, the “Post-emergence efficacy … (POAAN)” value in assay [13] is 100%.
Turning to `Cc1cc(C)c(-c2cc(CC3CC3)no2)c(Oc2ncc(Cl)cn2)n1` [Example I-201], the “Pre-emergence efficacy … (STEME)” value in [2] was determined as 90%. The “Pre-emergence efficacy … (AMARE)” value in assay [3] was determined as 90%. For the same compound, the “Pre-emergence efficacy … (KCHSC)” value in assay [4] (setting [17]) is given as 90%. The “Pre-emergence efficacy … (ABUTH)” value in assay [9] worked out at 90%. In assay [10], the “Pre-emergence efficacy … (POAAN)” value was found to be 100%. In addition, the “Post-emergence action” value in [14] is given as 90%. Also, the “Post-emergence efficacy … (VERPE)” value in [15] is listed as 90%. In assay [12], the “Post-emergence efficacy … (ABUTH)” value amounted to 90%.
As for `Cc1cc(C)c(-n2cc(I)cn2)c(Oc2ncc(Cl)cn2)n1` [Example I-295], the “Pre-emergence efficacy … (MATIN)” value in assay [1] is listed as 100%. For the same compound, the “Pre-emergence efficacy … (STEME)” value in [2] is given as 100%. For the same compound, the “Pre-emergence efficacy … (AMARE)” value in assay [3] turned out to be 100%. Also, the “Pre-emergence efficacy … (KCHSC)” value in assay [4] (setting [17]) was found to be 100%. Further, the “Pre-emergence efficacy … (SETVI)” value in assay [5] turned out to be 100%. In addition, the “Pre-emergence efficacy … (VERPE)” value in assay [6] was 90%. Moreover, the “Pre-emergence efficacy … (ECHCG)” value in [7] was found to be 90%. The “Pre-emergence efficacy … (ABUTH)” value in [9] came out at 100%. The “Pre-emergence efficacy … (POAAN)” value in assay [10] was found to be 90%. The “Post-emergence action” value in assay [14] was determined as 90%. The “Post-emergence efficacy … (AMARE)” value in [16] was determined as 90%. In addition, the “Post-emergence efficacy … (KCHSC)” value in assay [11] stood at 90%. The “Post-emergence efficacy … (VERPE)” value in [15] is reported as 100%.
